These results are taken from US20230040909A1 (priority 2019, published 2023).

Data set [1] concerns M. tb H37Rv. Put plainly: microbe, parasite or virus in culture. The settings on record: Mycobacterium tuberculosis, H37RV; for MIC: read-out: M. tb H37Rv: MIC-MABA. Format: cell-based, Mycobacterium tuberculosis.
Another data set can be described thus: VERO cell cytotoxicity. The class given is cell-based. The conditions noted are these: African green monkey, VERO cells. An excerpt: The procedures described in Falzari 2005 were used to generate the data shown in column 2 of Table 4.
In data set [2] the test system is M. tb H37Rv. Put plainly: microbe, parasite or virus in culture. Format: cell-based. The settings on record: Mycobacterium tuberculosis; for MIC: read-out: M. tb H37Rv: MIC-LORA; for inhibition at 20 µg/mL: at 20 μg/mL, read-out: M. tb H37Rv: MIC-LORA: Comment (% inhibition).
For a further data set, the system named is Mycobacterium abscessus. In words: M. ab_ATCC MIC MHII. The class given is cell-based. The settings on record: Mycobacteroides abscessus; read-out: M. ab_ATCC: MIC MHII: MIC. An excerpt:
The procedure described in Franz 2017 was used to generate the data shown in column 5 of Table 4.

Converted amounts (≈) assume the structure as drawn. Where two headings read alike, the source gives them in different places.

`Cc1cc(C)c2cc(C(=O)NC3CC[Si](C)(C)C3)[nH]c2c1` (racemic) [MPL-296, N-(1,1-dimethylsilolan-3-yl)-4,6-dimethyl-1H-indole-2-carboxamide]: the MIC in the data set with M. tb H37Rv [1] was determined as 0.0151 mg/L (≈ 0.0503 µM); in the data set on M. tb H37Rv [2], 2.3 mg/L (≈ 7.65 µM); in the data set on Mycobacterium abscessus it was 0.062 mg/L (≈ 0.206 µM). The same compound registered an IC50 in “VERO cell cytotoxicity” of 13.8 mg/L (≈ 45.9 µM).
The corresponding values for `C[Si]1(C)CCC(NC(=O)c2cc3c(Cl)cc(Cl)cc3[nH]2)C1` (racemic) [MPL-399, 4,6-dichloro-N-(1,1-dimethylsilolan-3-yl)-1H-indole-2-carboxamide] are less than 0.004 mg/L, 7.81 mg/L (≈ 22.9 µM), 0.062 mg/L (≈ 0.182 µM) and greater than 20 mg/L.
For the compound `C[Si]1(C)CC[C@@H](NC(=O)c2cc3c(Cl)cc(Cl)cc3[nH]2)C1` (single isomer, unassigned) [MPL-399A], the results for the MIC with M. tb H37Rv [1] and with Mycobacterium abscessus were 0.03 mg/L (≈ 0.0879 µM) and 0.125 mg/L (≈ 0.366 µM), respectively. In addition, the IC50 in “VERO cell cytotoxicity” is greater than 64 mg/L.
Consider `C[Si]1(C)CC[C@H](NC(=O)c2cc3c(Cl)cc(Cl)cc3[nH]2)C1` (single isomer, unassigned) [MPL-399B], for which the MIC was 0.003 mg/L (≈ 0.00879 µM) in the data set with M. tb H37Rv [1] and 0.125 mg/L (≈ 0.366 µM) in the data set with Mycobacterium abscessus. This compound also came in with an IC50 in “VERO cell cytotoxicity” of 52 mg/L (≈ 152 µM).
In the case of `COc1cc(F)cc2[nH]c(C(=O)NC3CC[Si](C)(C)CC3)cc12` [MPL-196, N-(1,1-dimethylsilinan-4-yl)-6-fluoro-4-methoxy-1H-indole-2-carboxamide], the MIC in the data set on M. tb H37Rv [1] was 0.0048 mg/L (≈ 0.0144 µM); with M. tb H37Rv [2] it was greater than 32 mg/L; in the data set on Mycobacterium abscessus it was greater than 64 mg/L. Moreover, the IC50 in “VERO cell cytotoxicity” is greater than 32 mg/L.
`O=C(NC1CC[Si]2(CCCC2)CC1)c1cc2c(F)cc(F)cc2[nH]1` [MPL-251, 4,6-difluoro-N-(5-silaspiro[4.5]decan-8-yl)-1H-indole-2-carboxamide]: the MIC in the data set with M. tb H37Rv [1] was 0.0043 mg/L (≈ 0.0123 µM); in the data set with M. tb H37Rv [2] it was 7 mg/L (≈ 20.1 µM); with Mycobacterium abscessus, greater than 64 mg/L. In the data set “VERO cell cytotoxicity”, this compound came in with a half-maximal inhibitory concentration (IC50) greater than 20 mg/L.
Take `O=C(NC1CC[Si]2(CCCC2)CC1)c1cc2c(Cl)cc(Cl)cc2[nH]1` [MPL-252, 4,6-dichloro-N-(5-silaspiro[4.5]decan-8-yl)-1H-indole-2-carboxamide]: the MIC turned out to be 0.014 mg/L (≈ 0.0367 µM) in the data set with M. tb H37Rv [1] and 64 mg/L (≈ 168 µM) in the data set on Mycobacterium abscessus. In addition, in “VERO cell cytotoxicity”, the IC50 was greater than 20 mg/L.
`O=C(NC1CC[Si]2(CCCCC2)CC1)c1cc2c(F)cc(F)cc2[nH]1` [MPL-256, 4,6-difluoro-N-(6-silaspiro[5.5]undecan-3-yl)-1H-indole-2-carboxamide]: the MIC in the data set with M. tb H37Rv [1] was 0.0041 mg/L (≈ 0.0113 µM); with M. tb H37Rv [2], 3.4 mg/L (≈ 9.38 µM); in the data set on Mycobacterium abscessus it was greater than 64 mg/L. Also, the IC50 in the data set “VERO cell cytotoxicity” is greater than 20 mg/L.
For `O=C(NC1CC[Si]2(CCCCC2)CC1)c1cc2c(Cl)cc(Cl)cc2[nH]1` [MPL-257, 4,6-dichloro-N-(6-silaspiro[5.5]undecan-3-yl)-1H-indole-2-carboxamide], the MIC in the data set on M. tb H37Rv [1] is 0.0045 mg/L (≈ 0.0114 µM); in the data set on M. tb H37Rv [2], greater than 20 mg/L; in the data set with Mycobacterium abscessus it was greater than 64 mg/L. For the same compound, in the data set on M. tb H37Rv [2], the inhibition at 20 µg/mL turned out to be 68%.
Regarding `Cc1cc(C)c2cc(C(=O)NC3CCC[Si](C)(C)CC3)[nH]c2c1` (stereo not drawn) [MPL-262, N-(1,1-dimethylsilepan-4-yl)-4,6-dimethyl-1H-indole-2-carboxamide], the MIC with M. tb H37Rv [1] came out at 0.009 mg/L (≈ 0.0274 µM); with M. tb H37Rv [2], 16 mg/L (≈ 48.7 µM); with Mycobacterium abscessus, 0.5 mg/L (≈ 1.52 µM).
`Cc1cc(C)c2cc(C(=O)NC3CC[Si]4(CCCC4)CC3)[nH]c2c1` [MPL-264, 4,6-dimethyl-N-(5-silaspiro[4.5]decan-8-yl)-1H-indole-2-carboxamide]: the MIC is 0.011 mg/L (≈ 0.0323 µM) in the data set with M. tb H37Rv [1], greater than 20 mg/L in the data set on M. tb H37Rv [2] and 64 mg/L (≈ 188 µM) in the data set with Mycobacterium abscessus. The compound also registered an IC50 in “VERO cell cytotoxicity” greater than 20 mg/L. The inhibition at 20 µg/mL with M. tb H37Rv [2] turned out to be 85%.
Turning to `Cc1cc(C)c2cc(C(=O)NC3CC[Si]4(CCCCC4)CC3)[nH]c2c1` [MPL-265, 4,6-dimethyl-N-(6-silaspiro[5.5]undecan-3-yl)-1H-indole-2-carboxamide], the MIC in the data set with M. tb H37Rv [1] was 0.014 mg/L (≈ 0.0395 µM); in the data set with M. tb H37Rv [2] it was greater than 20 mg/L; in the data set with Mycobacterium abscessus, greater than 64 mg/L. Also, the IC50 in the data set “VERO cell cytotoxicity” was greater than 20 mg/L. Further, the inhibition at 20 µg/mL in the data set on M. tb H37Rv [2] was 84%.
Turning to `C[Si]1(C)CCCC(NC(=O)c2cc3c(F)cc(F)cc3[nH]2)CC1` (stereo not drawn) [MPL-286, N-(1,1-dimethylsilepan-4-yl)-4,6-difluoro-1H-indole-2-carboxamide], the MIC was 0.0044 mg/L (≈ 0.0131 µM) in the data set with M. tb H37Rv [1], 7.9 mg/L (≈ 23.5 µM) with M. tb H37Rv [2] and greater than 64 mg/L in the data set on Mycobacterium abscessus. The same compound had an IC50 in “VERO cell cytotoxicity” greater than 20 mg/L.
On to `Cc1cc(C)c2cc(C(=O)NC3CCC[Si](C)(C)CCC3)[nH]c2c1` [MPL-303, N-(1,1-dimethylsilocan-5-yl)-4,6-dimethyl-1H-indole-2-carboxamide], for which the values for the MIC in the data set with M. tb H37Rv [1], in the data set with M. tb H37Rv [2] and in the data set on Mycobacterium abscessus were less than 0.004 mg/L, 4.23 mg/L (≈ 12.3 µM) and 4 mg/L (≈ 11.7 µM), respectively. In the data set “VERO cell cytotoxicity”, this compound had an IC50 greater than 20 mg/L.
Taken in the same sequence, the figures for `Cc1cc(C)c2cc(C(=O)NC3CC[Si](C)(C)CC3)[nH]c2c1` [MPL-317, N-(1,1-dimethylsilinan-4-yl)-4,6-dimethyl-1H-indole-2-carboxamide] were 0.031 mg/L (≈ 0.0986 µM), greater than 20 mg/L, 0.062 mg/L (≈ 0.197 µM) and greater than 20 mg/L.
Take `C[Si]1(C)CCCC(NC(=O)c2cc3c(C(F)(F)F)cc(C(F)(F)F)cc3[nH]2)CC1` (stereo not drawn) [MPL-324, N-(1,1-dimethylsilepan-4-yl)-4,6-bis(trifluoromethyl)-1H-indole-2-carboxamide]: the MIC with M. tb H37Rv [1] is 0.0154 mg/L (≈ 0.0353 µM); in the data set with M. tb H37Rv [2], greater than 20 mg/L; in the data set on Mycobacterium abscessus it was greater than 64 mg/L. The same compound gave an IC50 in “VERO cell cytotoxicity” greater than 20 mg/L.
As to `C[Si]1(C)CCCCC(NC(=O)c2cc3c(C(F)(F)F)cc(C(F)(F)F)cc3[nH]2)CC1` (stereo not drawn) [MPL-325, N-(1,1-dimethylsilocan-4-yl)-4,6-bis(trifluoromethyl)-1H-indole-2-carboxamide], the MIC is 0.0305 mg/L (≈ 0.0677 µM) with M. tb H37Rv [1], greater than 20 mg/L in the data set with M. tb H37Rv [2] and greater than 64 mg/L with Mycobacterium abscessus. For the same compound, the IC50 in the data set “VERO cell cytotoxicity” worked out at 16.4 mg/L (≈ 36.4 µM).
Taken in the same sequence, the figures for `C[Si]1(C)CCCC(NC(=O)c2cc3c(C(F)(F)F)cc(C(F)(F)F)cc3[nH]2)CCC1` [MPL-326, N-(1,1-dimethylsilocan-5-yl)-4,6-bis(trifluoromethyl)-1H-indole-2-carboxamide] were 0.0305 mg/L (≈ 0.0677 µM), greater than 20 mg/L, greater than 64 mg/L and 15.4 mg/L (≈ 34.2 µM).
For the compound `C[Si]1(C)CCC(NC(=O)c2cc3c(C(F)(F)F)cc(C(F)(F)F)cc3[nH]2)C1` (stereo not drawn) [MPL-327, N-(1,1-dimethylsilolan-3-yl)-4,6-bis(trifluoromethyl)-1H-indole-2-carboxamide], the figures for the MIC with M. tb H37Rv [1], in the data set on M. tb H37Rv [2] and in the data set on Mycobacterium abscessus were 0.00752 mg/L (≈ 0.0184 µM), greater than 20 mg/L and greater than 64 mg/L, respectively. In addition, the IC50 in “VERO cell cytotoxicity” is greater than 20 mg/L.
For `Cc1c(C(=O)NC2CC[Si](C)(C)CC2)[nH]c2cc(Cl)cc(Cl)c12` [MPL-334, 4,6-dichloro-N-(1,1-dimethylsilinan-4-yl)-3-methyl-1H-indole-2-carboxamide], the MIC is less than 0.004 mg/L in the data set on M. tb H37Rv [1], greater than 20 mg/L in the data set with M. tb H37Rv [2] and greater than 64 mg/L in the data set on Mycobacterium abscessus. Also, in “VERO cell cytotoxicity”, the IC50 is greater than 20 mg/L.
On to `CC(CC[Si](C)(C)C)NC(=O)c1cc2c(Cl)cc(Cl)cc2[nH]1` (stereo not drawn) [MPL-360, 4,6-dichloro-N-(1-methyl-3-trimethylsilyl-propyl)-1H-indole-2-carboxamide], for which, in the data set with M. tb H37Rv [1] (at 1 ug/mL, read-out: M. tb H37Rv: MABA % inhibition), the inhibition at 1 µg/mL came to 87%. Also, the IC50 in the data set “VERO cell cytotoxicity” was 15.4 mg/L (≈ 43.1 µM). In addition, the MIC with M. tb H37Rv [2] is greater than 20 mg/L.
